Experimental data from PMC6801819, “Exogenous Iron Increases Fasciocidal Activity and Hepatocellular Toxicity of the Synthetic Endoperoxides OZ78 and MT04” (International Journal of Molecular Sciences, 2019).

Assays:
[1] = tested on: complex IV of the mitochondrial electron transport chain; assay: High-resolution respirometry, TMPD/ascorbate + antimycin A (complex IV); type: cell-based, human; details: AS 100 µM, OZ78 500 µM, MT04 500 µM, 24 h, permeabilized HepG2
Method: After incubation with different drugs for 24 h, HepG2 cells were trypsinized and resuspended in DMEM with 10% fetal calf serum (FCS) and then centrifuged for 5 min (180× g). Cells were resuspended in MiRo5 respiration buffer (110 mM sucrose, 0.5 mM ethylene glycol-bis(β-aminoethyl ether)-N,N,N′,N′-tetraacetic acid (EGTA), 3.0 mM MgCl2, 80 mM KCl, 60 mM K-lactobionate, 10 mM KH2PO4, 20 mM taurine, 20 mM Hepes, 1.0 g/L BSA, pH 7.1). Respiration rates were measured at 37 °C using a high-resolution oxygraph (Oxygraph-2k, Oroboros Instruments, Innsbruck, Austria). Respiration rates were calculated as the time derivative of oxygen concentration measured in the closed respirometer. The amplified signal was recorded in a computer with an online display of the calibrated oxygen concentration and oxygen flux (DatLab software for data acquisition and analysis; Oroboros Instruments). The mitochondrial complex activity was assessed by a standard titration protocol: first cells were permeabilized with digitonin (10 µg/1 million cells) for 5 min. Afterward, for complex I-dependent maximal respiration stimulation, substrates added were glutamate (10 mM) and malate (5 mM), which provide nicotinamide adenine dinucleotide (NADH) to the respiratory chain (complex I activation), followed by addition of ADP (2.5 mM) (state 3, maximal respiration). After a stable signal was reached and marked, rotenone (0.5 µM) was added to inhibit complex I, and then complex II-dependent respiration was stimulated by adding succinate (10 mM), which provides flavin adenine dinucleotide (FADH) to the respiratory chain (complex II activation, state 3). Afterward, complex III was inhibited by antimycin A (2.5 µM), and complex IV-dependent respiration was measured by adding ascorbate (2 mM) and N,N,N′,N′-tetramethyl-p-phenylendiamine (TMPD, 0.5 mM). We confirmed the integrity of the outer mitochondrial membrane by showing the absence of a stimulatory effect of exogenous cytochrome c (10 µM) on respiration. Respiration was expressed as oxygen consumption per 5 × 10^5 cells.

[2] = tested on: human liver microsomes; assay: Metabolism in the presence of human liver microsomes; type: in vitro ADME; details: 10 µM, 2 hours; for parent substance metabolized: functional human liver microsomes, 37 °C
Method: The metabolism of AS, MT04, and OZ78 was tested in the presence of human liver microsomes or heat-inactivated microsomes (70 °C for 20 min, referred to as control microsomes) at 37 °C. AS, MT04 or OZ78 (10 µM each) were added to 1.0 mL of reaction mixture consisting of microsomes ([…]), an NADPH regenerating system, and PBS buffer, pH 7.4. Adding the drugs started the reaction. Aliquots of 100 µL were transferred into Eppendorf tubes after 0, 15, 30, 60, 120 min. The reaction was stopped by adding 300 µL methanol. The samples were then vortexed and centrifuged at 3000 g for 30 min. Supernatants were taken for LC-MS analysis.
LC-MS/MS measurements for AS were performed as described recently. Briefly, sample measurements were done with a high-performance liquid chromatography (HPLC) system (Shimadzu, Kyoto, Japan) connected to an API 365 triple-quadrupole mass spectrometer (PE Biosystems, Foster City, CA, USA) with a turbo ion spray interface. AS was detected in positive ionization mode by selected reaction monitoring (SRM) with a transition of 267.4→163.0. For analyte separation, a reversed phase column was used (2.1 × 10 mm guard cartridge (3 μm) connected to a 2.1 × 20 mm Atlantis T3 3 μm analytical column (Waters, Milford, MA, USA)). A gradient was used (mobile phase A: 5 mM ammonium formiate plus 0.15% (v/v) formic acid in ultra-pure water, mobile phase B: 0.15% (v/v) formic acid in acetonitrile) at a flow rate of 0.3 mL/min.
The analysis of MT04 and OZ78 [42] was conducted using the same system as described for AS. A phenomenex C8 (50mm × 2.00mm, 5µm, Brechbühler AG, Schlieren, Switzerland) was used for chromatographic separation with a gradient (mobile A: 5 mM ammonium formiate in water and mobile B: acetonitrile) at a flow rate of 0.3 mL/min. MS was conducted in negative ionization mode. For OZ78 and MT04 a mass of 321.4 and 337.4, respectively, was detected.

[3] = tested on: NMRI mice; assay: Liver toxicity study in mice (plasma AST, aPhos, bilirubin, liver histology); type: in vivo, mouse; details: for Histopathologic observation: liver 8 hours; for plasma aspartate aminotransferase (AST) / plasma alkaline phosphatase (aPhos) / total serum bilirubin: single oral dose 200-800 mg/kg, 8 h post-treatment; for hepatic toxicity in vivo (overall): single oral doses up to 800 mg/kg
Method: All animal studies were carried out at the Swiss Tropical and Public Health Institute (Basel, Switzerland) and were approved by Swiss and cantonal authorities (permission: 2070). Female NMRI mice (age: 3–4 weeks, weight: ~20 g) were purchased from Harlan Laboratories (Horst, The Netherlands). Mice were kept in groups of 10 animals in macrolon-cages in environmentally controlled conditions (temperature: ~25 °C; humidity: ~70%; 12 h light/dark cycle) and acclimatized for one week. They had free access to water and rodent diet. For the in vivo studies AS, OZ78 or MT04 were suspended in 7% (v/v) Tween-80 and 3% (v/v) ethanol.
Since treatment of F. hepatica infections in animals is typically performed by a single oral dose, we performed a pilot study to find out the best time point to kill the mice at which we could observe hepatic toxicity after drug application. This time point was 8 h after drug application (data not shown).
In the final experiment, mice were treated with 200, 400, or 800 mg/kg AS, OZ78, or MT04 by oral gavage. Seven mice were left untreated for control measurements. According to the results of the pilot experiments, where we measured the highest increase in total serum bilirubin, AST or alkaline phosphatase 8 h post-treatment, mice were euthanized by CO2 8 h post-treatment, blood was collected and analyzed as described above. After blood collection, the liver was removed, carefully examined macroscopically, and gross lesions were recorded. Livers were then stored in formalin 10% (v/v) until fixation in 4% paraformaldehyde was performed. After embedding in paraffin, sections of 5 μm thickness were obtained, stained with hematoxylin and eosin, and examined using light microscopy.

[4] = tested on: F. hepatica; details: rats infected with F. hepatica, single oral dose AS 200 mg/kg, OZ78 100 mg/kg, MT04 50 mg/kg; cited from earlier work

Row | SMILES | decrease of maximal ADP-stimulated respiration rate, TMPD/ascorbate + antimycin A (complex IV) [1] | parent substance metabolized [2] | Histopathologic observation ([3]; 200 mg/kg oral, mouse 1) | Histopathologic observation ([3]; 200 mg/kg oral, mouse 2) | Histopathologic observation ([3]; 200 mg/kg oral, mouse 3) | Histopathologic observation ([3]; 200 mg/kg oral, mouse 4) | Histopathologic observation ([3]; 400 mg/kg oral, mouse 1) | Histopathologic observation ([3]; 400 mg/kg oral, mouse 2) | Histopathologic observation ([3]; 400 mg/kg oral, mouse 3) | Histopathologic observation ([3]; 400 mg/kg oral, mouse 4) | Histopathologic observation ([3]; 800 mg/kg oral, mouse 1) | Histopathologic observation ([3]; 800 mg/kg oral, mouse 2) | Histopathologic observation ([3]; 800 mg/kg oral, mouse 3) | Histopathologic observation ([3]; 800 mg/kg oral, mouse 4) | liver histology, group summary ([3]; mice, 400 mg/kg oral, 8 h) | liver histology, group summary ([3]; mice, 800 mg/kg oral, 8 h) | plasma aspartate aminotransferase (AST) ([3]; mice) | hepatic toxicity in vivo (overall) ([3]; mice, 8 h) | killing of juvenile and adult liver flukes in vivo [4] | liver histology, group summary ([3]; mice, 200 mg/kg oral, 8 h) | also measured
1 | O=C(O)CC1CCC2(CC1)OOC1(OO2)C2CC3CC(C2)CC1C3 (centres unmarked) [MT04] | 22% | did not show a decrease | No lesions | No lesions | No lesions | Nuclear polymorphism | Nuclear polymorphism | Nuclear polymorphism | No lesions | No lesions | No lesions | Slight hydropic degeneration | Slight hydropic degeneration and nuclear polymorphism | Slight hydropic degeneration and nuclear polymorphism | no pathologic liver histology | Three out of four mice treated with 800 mg/kg MT04 presented hydropic degeneration | did not affect AST levels in a concentration-dependent fashion | no relevant hepatic toxicity | efficiently killed juvenile and adult liver flukes |  | AST values of single mice ([3]; mice, 200 mg/kg oral, 8 h): Two mice treated with 200 mg/kg MT04 had highly elevated AST values
2 | O=C(O)C[C@H]1CC[C@]2(CC1)OOC1(O2)C2CC3CC(C2)CC1C3 (some centres unmarked) [OZ78] | only numerically, but without reaching statistical significance | did not show a decrease | No lesions | Slight hydropic degeneration | Slight hydropic degeneration | No lesions | Slight hydropic degeneration | Passive congestion | Nuclear polymorphism | Slight hydropic degeneration | Slight hydropic degeneration | No lesions | Passive congestion | Slight hydropic degeneration | two mice (out of four) with slight hydropic degeneration of hepatocytes | two mice (out of four) with slight hydropic degeneration of hepatocytes | in the normal range | no relevant hepatic toxicity | efficiently killed juvenile and adult liver flukes | two mice (out of four) with slight hydropic degeneration of hepatocytes | plasma alkaline phosphatase (aPhos) ([3]; mice): in the normal range; total serum bilirubin ([3]; mice): in the normal range
3 | C[C@H]1[C@H](OC(=O)CCC(=O)O)O[C@@H]2O[C@@]3(C)CC[C@H]4[C@H](C)CC[C@@H]1[C@@]24OO3 [AS, artesunate, reference compound] | 47% | 94% | No lesions | No lesions | No lesions |  | No lesions | No lesions | Beginning nodular regeneration |  | Steatosis | Small area of confluent necrosis | No lesions |  |  | one mouse was without lesions, one with steatosis, and one with confluent necrosis | moderately increased with escalating doses |  | efficiently killed juvenile and adult liver flukes | not associated with liver injury | degradation of parent substance ([2]; heat-inactivated microsomes): no degradation was detected; time of highest values of AST, aPhos and total serum bilirubin (pilot study) ([3]; mice, single oral dose 400 mg/kg, sampled 2, 4, 8, 12, 24 h): 8 h; plasma alkaline phosphatase (aPhos) ([3]; mice): did not increase; total serum bilirubin ([3]; mice): did not increase; liver lesions (pilot study) ([3]; mouse, in vivo, po, 400 mg/kg): no liver lesions were observed
